Here are results for two molecules from publication PMC7496286, “The Selectivity of Fosfosal for STAT5b over STAT5a is Mediated by Arg566 in the Linker Domain” (Chembiochem, 2020).

Structures are written as SMILES. Where a chain is given by its changes, count along the chain named.

The target of test [1] is T1, STAT5b-6M (Gln636Pro/Met639Asn/Phe640Leu/Met644Lys/Asn664Ser/Tyr679Phe) (Homo sapiens, UniProt P51692, F640L/M639N/M644K/N664S/Q636P/Y679F).
T1 construct: His; made in house
T1 sequence (P51692 1-787 Q636P/M639N/F640L/M644K/N664S/Y679F): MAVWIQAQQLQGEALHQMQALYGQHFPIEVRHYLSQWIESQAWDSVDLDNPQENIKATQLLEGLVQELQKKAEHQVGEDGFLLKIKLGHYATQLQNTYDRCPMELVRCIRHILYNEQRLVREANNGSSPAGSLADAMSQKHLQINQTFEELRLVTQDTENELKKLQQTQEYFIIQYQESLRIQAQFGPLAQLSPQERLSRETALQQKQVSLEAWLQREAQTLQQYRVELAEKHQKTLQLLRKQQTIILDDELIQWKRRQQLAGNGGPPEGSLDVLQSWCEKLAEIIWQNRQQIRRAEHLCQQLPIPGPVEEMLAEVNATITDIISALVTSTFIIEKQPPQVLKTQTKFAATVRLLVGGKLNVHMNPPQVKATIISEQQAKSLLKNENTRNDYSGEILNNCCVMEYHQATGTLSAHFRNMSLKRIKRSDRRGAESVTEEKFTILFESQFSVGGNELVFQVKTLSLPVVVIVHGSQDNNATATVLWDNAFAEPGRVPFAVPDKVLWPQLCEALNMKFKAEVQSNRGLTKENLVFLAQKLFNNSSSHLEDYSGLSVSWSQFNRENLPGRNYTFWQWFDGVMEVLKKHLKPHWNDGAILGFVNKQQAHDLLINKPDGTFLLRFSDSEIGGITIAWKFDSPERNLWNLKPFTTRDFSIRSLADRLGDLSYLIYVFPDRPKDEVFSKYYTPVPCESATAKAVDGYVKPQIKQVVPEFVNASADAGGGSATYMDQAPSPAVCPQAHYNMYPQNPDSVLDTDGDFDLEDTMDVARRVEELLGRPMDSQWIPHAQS
Put plainly: FP-based competitive binding assay, STAT5b-6M. As for the experimental part:
(§1) Fluorescence polarization assays
(§2) The ability of test compounds to displace 5-carboxyfluorescein-GY(PO3H2)LVLDKW (final concentration: 10 nM) from the SH2 domain of STAT5a/b proteins was analyzed. Proteins […]
(§3) was applied in dilution series comprising the following concentrations: 0.024 – 200 µM […]
(§4) and 0.146 – 600 µM (STAT5b Arg566Glu), respectively. The assays were performed in buffer containing 10 mM Tris, 50 mM NaCl, 1 mM DTT, 1 mM EDTA and 0.1% (v/v) NP-40. Fosfosal was dissolved in DMSO. STAT5a/b proteins and fosfosal were incubated at room temperature for 1 h before adding peptide. Samples were transferred to 384-well microtiter plates and fluorescence polarization was read after a further 1 h incubation time. All measurements were performed in triplicate (n=3), except for STAT5b (n=6) and STAT5a Trp566Arg (n=4). Percent binding was calculated based on a logarithmic curve fit using OriginPro 8G software. IC50 values were converted to Ki values using the published equation.[4] […]
(§5) [4] Z. Nikolovska-Coleska, R. Wang, X. Fang, H. Pan, Y. Tomita, P. Li, P. P. Roller, K.
(§6) Krajewski, N. G. Saito, J. A. Stuckey, S. Wang, Anal. Biochem. 2004, 332, 261-273.

In test [2] the target is T2, STAT5b Arg566Glu (Homo sapiens, UniProt P51692, R566E).
T2 construct: His; made in house
T2 sequence (P51692 1-787 R566E): T1 sequence (P51692 1-787 Q636P/M639N/F640L/M644K/N664S/Y679F) with R566E, P636Q, N639M, L640F, K644M, S664N, F679Y
The test is described as follows: FP-based competitive binding assay, STAT5b Arg566Glu. As for the experimental part:
as §1, §2, §3, §4

Test [3] deals with T3, STAT5a Trp566Arg/Lys644Met (Homo sapiens, UniProt P42229, K644M/W566R).
T3 construct: His; made in house
T3 sequence (P42229 1-794 W566R/K644M): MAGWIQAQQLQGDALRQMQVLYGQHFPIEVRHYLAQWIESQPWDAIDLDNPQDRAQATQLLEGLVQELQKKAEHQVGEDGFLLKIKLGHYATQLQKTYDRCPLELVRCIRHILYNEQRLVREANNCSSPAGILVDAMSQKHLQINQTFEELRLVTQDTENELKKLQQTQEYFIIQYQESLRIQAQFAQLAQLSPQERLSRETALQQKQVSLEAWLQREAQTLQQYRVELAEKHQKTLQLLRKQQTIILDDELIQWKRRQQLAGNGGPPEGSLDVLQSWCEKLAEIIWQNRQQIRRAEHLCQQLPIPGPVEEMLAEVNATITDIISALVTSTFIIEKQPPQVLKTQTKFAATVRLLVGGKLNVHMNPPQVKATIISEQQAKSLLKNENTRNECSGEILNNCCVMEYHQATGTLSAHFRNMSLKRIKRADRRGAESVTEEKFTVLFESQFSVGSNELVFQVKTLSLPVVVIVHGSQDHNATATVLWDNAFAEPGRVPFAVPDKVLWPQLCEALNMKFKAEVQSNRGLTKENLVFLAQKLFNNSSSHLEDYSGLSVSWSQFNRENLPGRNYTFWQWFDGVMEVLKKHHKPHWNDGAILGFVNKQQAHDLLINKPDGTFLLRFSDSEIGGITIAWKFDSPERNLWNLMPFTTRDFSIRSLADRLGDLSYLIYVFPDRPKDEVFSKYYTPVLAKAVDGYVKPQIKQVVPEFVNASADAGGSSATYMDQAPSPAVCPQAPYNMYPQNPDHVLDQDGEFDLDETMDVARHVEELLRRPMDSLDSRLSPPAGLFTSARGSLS
The test is described as follows: FP-based competitive binding assay, STAT5a Trp566Arg/Lys644Met. Here is the method: as §1, §2, §3, §4, §5, §6

As usually defined, the Kd is the equilibrium constant for the complex coming apart. A high value points to a looser complex. Turning to `CC(C)C[C@H](NC(=O)[C@H](Cc1ccc(OP(=O)(O)O)cc1)NC(=O)CNC(=O)c1ccc2c(c1)C(=O)OC21c2ccc(O)cc2Oc2cc(O)ccc21)C(=O)N[C@H](C(=O)N[C@@H](CC(C)C)C(=O)N[C@@H](CC(=O)O)C(=O)N[C@@H](CCCCN)C(=O)N[C@@H](Cc1c[nH]c2ccccc12)C(=O)O)C(C)C` [5-carboxyfluorescein-GY(PO3H2)LVLDKW], the values for the Kd in test [1], in test [2] and in test [3] were 0.085 µM, 2 µM and 0.08 µM, respectively.
As usually defined, the IC50 is the midpoint of a concentration-inhibition curve. Lower therefore signals higher potency. As a reminder, the Ki is a measure of affinity in units of concentration, obtained from inhibition or displacement. Turning to `O=C(O)c1ccccc1OP(=O)(O)O` [fosfosal, O‐phosphorylated salicylic acid], the IC50 in test [1] (STAT5b-6M) came out at 21.3 ± 1.2 µM; in test [3] (STAT5a Trp566Arg/Lys644Met), 24.5 ± 1.4 µM. In addition, the Ki was 10.7 ± 0.6 µM in test [1] (STAT5b-6M, Ki calculated from IC50) and 12.3 ± 0.6 µM in test [3] (STAT5a Trp566Arg/Lys644Met, Ki calculated from IC50). Further, the “increase of activity against STAT5b-6M compared to wild type STAT5b” value in test [1] (ratio of Ki values) is roughly 3 fold. Besides, the “% inhibition at 600 μM” value in test [2] (STAT5b Arg566Glu, up to 600 μM) is recorded as “no inhibition”.
